According to PMC9274761, “Effects of Structurally Different HDAC Inhibitors against Trypanosoma cruzi, Leishmania, and Schistosoma mansoni” (ACS Infectious Diseases, 2022):
Several values for one entry are separate records, joined by “and”; a condition that tells them apart may be missing. Equal entries are not always repeated.

What was measured:
HDAC1 = HDAC1 (Homo sapiens, UniProt Q13547); experiment: HDAC1 protease-coupled fluorescence (AMC) inhibition assay; format: biochemical; conditions: hr enzyme, 10-dose, 3-fold dilution from 50 μM (3: from 300 μM); read-out: IC50 against HDAC1
Chain of HDAC1 (Q13547 whole entry): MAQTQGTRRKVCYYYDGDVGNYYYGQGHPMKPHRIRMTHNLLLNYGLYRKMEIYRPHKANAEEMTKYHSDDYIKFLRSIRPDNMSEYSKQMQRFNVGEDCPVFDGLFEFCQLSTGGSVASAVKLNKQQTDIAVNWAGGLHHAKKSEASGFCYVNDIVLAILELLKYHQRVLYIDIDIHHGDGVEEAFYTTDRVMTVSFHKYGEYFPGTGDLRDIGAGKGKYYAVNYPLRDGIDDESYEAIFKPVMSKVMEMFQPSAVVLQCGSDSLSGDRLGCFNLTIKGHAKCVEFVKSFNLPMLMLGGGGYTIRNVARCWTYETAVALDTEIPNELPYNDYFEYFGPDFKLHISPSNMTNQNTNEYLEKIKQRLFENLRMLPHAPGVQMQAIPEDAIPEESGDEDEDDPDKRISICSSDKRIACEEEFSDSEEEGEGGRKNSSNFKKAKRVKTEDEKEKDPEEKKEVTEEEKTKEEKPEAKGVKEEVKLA
Source text: (§1) The new hydroxamates 2 and 6 were screened and profiled via a protease-coupled assay in which the quantification of HDAC enzyme activity is based on the formation of a free fluorescent group, the 7-amino-4-methyl coumarin (AMC).[42] […] After deacetylation by HDACs, the de(trifluoro)acetylated AMC–peptides were sensitive toward lysine peptidase and free fluorogenic AMC was generated and quantified.[42]
(§2) To gain insights into its inhibition profile for human HDACs, we tested 3 against hrHDACs 1–6 and 8 following the above procedure (Table 1).
(§3) Individual IC50 values for each HDAC isozyme were measured with the homogeneous fluorescence release HDAC assay.[42]

[1] = tested on: L. amazonensis amastigotes in primary mouse macrophages; conditions: 10 μM, 3 days, toxic = toxic for macrophages
HDAC10 = HDAC10 (Homo sapiens, UniProt Q969S8); experiment: HDAC10 protease-coupled fluorescence (AMC) inhibition assay; format: biochemical; conditions: hr enzyme; read-out: IC50 against HDAC10
Chain of HDAC10 (Q969S8 whole entry): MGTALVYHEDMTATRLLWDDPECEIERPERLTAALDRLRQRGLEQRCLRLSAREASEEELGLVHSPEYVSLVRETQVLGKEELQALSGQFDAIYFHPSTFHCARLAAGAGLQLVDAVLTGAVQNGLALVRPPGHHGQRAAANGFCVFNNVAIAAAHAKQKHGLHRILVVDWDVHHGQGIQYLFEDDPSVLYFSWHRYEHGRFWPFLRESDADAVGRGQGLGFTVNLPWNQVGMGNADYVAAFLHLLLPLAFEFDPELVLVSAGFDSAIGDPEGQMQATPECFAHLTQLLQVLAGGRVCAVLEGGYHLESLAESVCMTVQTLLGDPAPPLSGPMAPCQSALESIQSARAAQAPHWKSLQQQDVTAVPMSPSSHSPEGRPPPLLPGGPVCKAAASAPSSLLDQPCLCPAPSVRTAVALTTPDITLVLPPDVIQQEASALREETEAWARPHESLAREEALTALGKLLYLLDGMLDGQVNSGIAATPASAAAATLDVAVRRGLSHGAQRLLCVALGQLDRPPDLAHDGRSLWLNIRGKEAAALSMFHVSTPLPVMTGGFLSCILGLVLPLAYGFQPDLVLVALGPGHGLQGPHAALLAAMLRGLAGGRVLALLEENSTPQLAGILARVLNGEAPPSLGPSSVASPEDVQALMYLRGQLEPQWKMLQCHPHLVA
Procedure: as §1, §3

HDAC9 = HDAC9 (Homo sapiens, UniProt Q9UKV0); experiment: HDAC9 protease-coupled fluorescence (AMC) inhibition assay; format: biochemical; conditions: hr enzyme, class IIa substrate; read-out: IC50 against HDAC9
Chain of HDAC9 (Q9UKV0 whole entry): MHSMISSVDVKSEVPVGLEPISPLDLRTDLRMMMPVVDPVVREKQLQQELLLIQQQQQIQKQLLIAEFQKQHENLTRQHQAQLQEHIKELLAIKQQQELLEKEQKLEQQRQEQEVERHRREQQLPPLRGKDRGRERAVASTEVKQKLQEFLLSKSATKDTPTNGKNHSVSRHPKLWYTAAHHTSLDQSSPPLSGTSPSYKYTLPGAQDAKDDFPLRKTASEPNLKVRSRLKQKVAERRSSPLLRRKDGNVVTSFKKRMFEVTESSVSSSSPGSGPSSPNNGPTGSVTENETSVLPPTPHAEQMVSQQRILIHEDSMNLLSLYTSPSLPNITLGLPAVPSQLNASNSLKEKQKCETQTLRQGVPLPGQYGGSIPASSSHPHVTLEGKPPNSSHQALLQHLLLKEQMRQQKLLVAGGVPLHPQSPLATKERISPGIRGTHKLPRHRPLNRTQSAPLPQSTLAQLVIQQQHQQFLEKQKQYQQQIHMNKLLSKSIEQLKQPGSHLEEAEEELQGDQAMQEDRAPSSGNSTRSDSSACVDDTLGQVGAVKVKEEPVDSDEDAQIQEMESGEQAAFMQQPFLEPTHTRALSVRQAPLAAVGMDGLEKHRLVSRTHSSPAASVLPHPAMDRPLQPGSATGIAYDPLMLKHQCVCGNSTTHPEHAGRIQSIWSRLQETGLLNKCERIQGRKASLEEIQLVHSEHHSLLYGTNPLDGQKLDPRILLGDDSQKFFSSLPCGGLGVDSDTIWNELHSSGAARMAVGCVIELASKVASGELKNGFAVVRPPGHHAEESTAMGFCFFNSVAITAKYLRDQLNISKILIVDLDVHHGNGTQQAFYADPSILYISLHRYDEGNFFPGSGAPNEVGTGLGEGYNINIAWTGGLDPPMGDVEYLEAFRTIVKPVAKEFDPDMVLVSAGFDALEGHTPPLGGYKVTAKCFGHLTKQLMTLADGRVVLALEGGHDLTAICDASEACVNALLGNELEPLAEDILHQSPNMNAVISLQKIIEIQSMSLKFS
Procedure: as §1, §3

[2] = tested on: T. cruzi amastigotes and trypomastigotes; experiment: T. cruzi infection assay in L929 cells (beta-galactosidase Tulahuen strain); format: cell-based, Trypanosoma cruzi; conditions: infected L929 cells, 96 h; for EC50, growth of T. cruzi amastigotes and trypomastigotes: mean ± SD
[3] = tested on: newly transformed schistosomula (NTS); experiment: Phenotypic screening on newly transformed schistosomula (NTS); format: cell-based, Schistosoma mansoni; conditions: for IC50: Schistosoma mansoni, 72 h, read-out: IC50, viability of NTS
HDAC5 = HDAC5 (Homo sapiens, UniProt Q9UQL6); experiment: HDAC5 protease-coupled fluorescence (AMC) inhibition assay; format: biochemical; conditions: for IC50: hr enzyme, class IIa substrate Boc-Lys(trifluoroacetyl)-AMC, read-out: IC50 against HDAC5
Chain of HDAC5 (Q9UQL6 whole entry): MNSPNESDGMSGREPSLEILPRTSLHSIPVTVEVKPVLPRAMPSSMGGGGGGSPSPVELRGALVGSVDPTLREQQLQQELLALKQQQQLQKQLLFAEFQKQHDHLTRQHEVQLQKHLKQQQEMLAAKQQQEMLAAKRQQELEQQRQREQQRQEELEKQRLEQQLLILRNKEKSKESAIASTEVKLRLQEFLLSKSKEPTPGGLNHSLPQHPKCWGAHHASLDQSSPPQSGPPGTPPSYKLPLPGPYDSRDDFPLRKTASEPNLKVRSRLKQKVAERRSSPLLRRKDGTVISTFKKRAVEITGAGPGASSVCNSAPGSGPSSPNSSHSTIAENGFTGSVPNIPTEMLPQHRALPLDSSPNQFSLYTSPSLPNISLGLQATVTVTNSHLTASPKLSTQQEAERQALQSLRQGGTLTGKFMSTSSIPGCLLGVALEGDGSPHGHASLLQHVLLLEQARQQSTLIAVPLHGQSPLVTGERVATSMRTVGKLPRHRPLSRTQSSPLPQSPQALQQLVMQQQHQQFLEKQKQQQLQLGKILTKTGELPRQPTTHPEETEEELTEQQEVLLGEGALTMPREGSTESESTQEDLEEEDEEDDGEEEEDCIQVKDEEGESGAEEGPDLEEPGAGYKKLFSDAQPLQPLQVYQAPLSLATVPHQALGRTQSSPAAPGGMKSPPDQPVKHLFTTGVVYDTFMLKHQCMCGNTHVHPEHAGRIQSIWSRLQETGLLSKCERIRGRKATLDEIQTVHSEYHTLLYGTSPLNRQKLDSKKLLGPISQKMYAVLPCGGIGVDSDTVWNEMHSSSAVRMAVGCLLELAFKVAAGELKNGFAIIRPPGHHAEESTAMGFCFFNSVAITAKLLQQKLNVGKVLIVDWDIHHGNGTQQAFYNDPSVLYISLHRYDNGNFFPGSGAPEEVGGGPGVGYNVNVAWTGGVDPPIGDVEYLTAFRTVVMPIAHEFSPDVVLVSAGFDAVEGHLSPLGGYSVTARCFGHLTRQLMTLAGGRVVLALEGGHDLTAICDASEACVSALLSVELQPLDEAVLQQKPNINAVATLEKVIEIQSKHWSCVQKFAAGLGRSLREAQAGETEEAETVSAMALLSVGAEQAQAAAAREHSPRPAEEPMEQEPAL
Source text: as §1, §2, §3

[4] = tested on: L. amazonensis promastigotes; experiment: Resazurin reduction assay, L. amazonensis promastigotes; format: cell-based; conditions: Leishmania amazonensis, read-out: percentage of inhibition, L. amazonensis promastigotes
HDAC11 = HDAC11 (Homo sapiens, UniProt Q96DB2); experiment: HDAC11 protease-coupled fluorescence (AMC) inhibition assay; format: biochemical; conditions: hr enzyme; read-out: IC50 against HDAC11
Chain of HDAC11 (Q96DB2 whole entry): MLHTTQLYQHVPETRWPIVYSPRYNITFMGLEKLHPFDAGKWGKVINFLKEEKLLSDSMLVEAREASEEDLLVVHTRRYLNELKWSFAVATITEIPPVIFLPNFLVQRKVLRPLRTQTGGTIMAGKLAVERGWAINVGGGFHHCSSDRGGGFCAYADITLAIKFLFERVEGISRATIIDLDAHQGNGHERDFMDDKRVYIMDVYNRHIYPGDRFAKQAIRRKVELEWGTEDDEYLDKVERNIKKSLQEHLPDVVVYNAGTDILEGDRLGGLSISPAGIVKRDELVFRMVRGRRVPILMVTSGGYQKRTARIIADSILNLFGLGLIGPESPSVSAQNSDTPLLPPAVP
Procedure: as §1, §3

[5] = tested on: L. donovani promastigotes; experiment: Resazurin reduction assay, L. donovani promastigotes; format: cell-based; conditions: Leishmania donovani, read-out: percentage of inhibition, L. donovani promastigotes
HDAC6 = molecular target: T1, HDAC6 (Homo sapiens, UniProt Q9UBN7); experiment: HDAC6 protease-coupled fluorescence (AMC) inhibition assay; format: biochemical; conditions: hr enzyme, 10-dose, 3-fold dilution from 50 μM (3: from 300 μM); read-out: IC50 against HDAC6
T1 sequence (Q9UBN7 1-1215): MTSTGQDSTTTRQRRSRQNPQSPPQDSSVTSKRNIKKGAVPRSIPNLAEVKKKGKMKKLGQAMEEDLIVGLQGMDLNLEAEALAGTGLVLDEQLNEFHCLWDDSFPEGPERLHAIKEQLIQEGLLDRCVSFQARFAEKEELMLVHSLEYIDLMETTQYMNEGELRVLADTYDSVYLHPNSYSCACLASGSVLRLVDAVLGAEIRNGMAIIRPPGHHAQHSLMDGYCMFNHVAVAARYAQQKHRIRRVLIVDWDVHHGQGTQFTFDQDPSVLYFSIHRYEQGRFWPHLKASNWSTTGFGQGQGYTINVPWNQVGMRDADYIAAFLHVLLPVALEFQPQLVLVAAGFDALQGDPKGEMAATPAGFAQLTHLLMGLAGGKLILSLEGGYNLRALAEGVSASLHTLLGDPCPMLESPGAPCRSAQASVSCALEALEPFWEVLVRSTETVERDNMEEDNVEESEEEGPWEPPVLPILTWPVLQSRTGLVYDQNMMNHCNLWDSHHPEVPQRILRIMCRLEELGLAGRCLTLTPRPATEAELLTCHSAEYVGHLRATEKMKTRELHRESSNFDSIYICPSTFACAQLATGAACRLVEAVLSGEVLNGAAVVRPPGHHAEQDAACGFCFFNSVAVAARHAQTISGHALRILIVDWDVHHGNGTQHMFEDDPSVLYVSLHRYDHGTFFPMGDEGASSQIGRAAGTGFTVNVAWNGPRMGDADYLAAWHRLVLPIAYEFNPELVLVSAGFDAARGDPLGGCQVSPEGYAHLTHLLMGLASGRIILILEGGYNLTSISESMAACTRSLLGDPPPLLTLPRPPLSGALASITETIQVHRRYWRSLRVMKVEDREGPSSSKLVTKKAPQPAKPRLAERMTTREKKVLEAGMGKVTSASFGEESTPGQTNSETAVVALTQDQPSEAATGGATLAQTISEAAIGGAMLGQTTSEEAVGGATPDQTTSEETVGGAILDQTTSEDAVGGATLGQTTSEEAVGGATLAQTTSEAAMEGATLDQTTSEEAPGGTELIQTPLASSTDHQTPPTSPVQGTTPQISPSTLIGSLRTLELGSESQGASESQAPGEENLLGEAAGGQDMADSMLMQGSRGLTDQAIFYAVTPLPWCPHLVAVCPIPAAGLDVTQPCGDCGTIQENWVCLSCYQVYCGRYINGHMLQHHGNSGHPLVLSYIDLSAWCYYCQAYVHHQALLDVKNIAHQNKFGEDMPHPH
Source text: as §1, §2, §3

HDAC7 = HDAC7 (Homo sapiens, UniProt Q8WUI4); experiment: HDAC7 protease-coupled fluorescence (AMC) inhibition assay; format: biochemical; conditions: hr enzyme, class IIa substrate; read-out: IC50 against HDAC7
Chain of HDAC7 (Q8WUI4 whole entry): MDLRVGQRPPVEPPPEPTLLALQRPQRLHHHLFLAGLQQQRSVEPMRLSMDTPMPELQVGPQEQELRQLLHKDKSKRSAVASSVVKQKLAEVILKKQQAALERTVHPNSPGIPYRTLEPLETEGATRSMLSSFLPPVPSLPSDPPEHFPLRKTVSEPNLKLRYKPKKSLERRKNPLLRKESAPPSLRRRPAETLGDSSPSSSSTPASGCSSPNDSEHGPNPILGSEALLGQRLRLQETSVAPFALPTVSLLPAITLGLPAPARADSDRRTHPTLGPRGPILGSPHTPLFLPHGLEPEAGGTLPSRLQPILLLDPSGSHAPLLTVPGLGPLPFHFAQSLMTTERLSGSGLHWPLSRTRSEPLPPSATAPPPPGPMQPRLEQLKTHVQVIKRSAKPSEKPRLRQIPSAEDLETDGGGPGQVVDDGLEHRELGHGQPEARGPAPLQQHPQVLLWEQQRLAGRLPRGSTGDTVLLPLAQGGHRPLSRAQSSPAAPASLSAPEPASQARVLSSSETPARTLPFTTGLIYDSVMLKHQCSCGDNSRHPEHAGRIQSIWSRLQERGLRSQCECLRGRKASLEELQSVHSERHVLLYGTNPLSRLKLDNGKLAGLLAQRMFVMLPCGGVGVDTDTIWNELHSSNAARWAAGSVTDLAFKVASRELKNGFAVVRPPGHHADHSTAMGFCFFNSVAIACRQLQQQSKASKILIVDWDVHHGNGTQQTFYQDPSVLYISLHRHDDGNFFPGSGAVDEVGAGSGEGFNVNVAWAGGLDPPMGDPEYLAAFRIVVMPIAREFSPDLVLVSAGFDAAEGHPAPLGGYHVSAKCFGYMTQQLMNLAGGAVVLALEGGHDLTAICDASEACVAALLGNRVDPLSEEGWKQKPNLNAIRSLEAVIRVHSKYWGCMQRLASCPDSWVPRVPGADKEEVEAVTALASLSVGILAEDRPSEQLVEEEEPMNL
Procedure: as §1, §3

in vitro = conditions: mouse, noninfected L929 fibroblast cells
[6] = Trypanosoma cruzi, read-out: percentage of T. cruzi growth inhibition
[7] = Trypanosoma cruzi, toxic = L929 death, read-out: percentage of T. cruzi growth inhibition

Row | SMILES | IC50 (HDAC1) | HCA outcome against intramacrophagic L. amazonensis amastigotes [1] | IC50 (HDAC10) | IC50 (HDAC9) | percentage of T. cruzi growth inhibition ([2]; 40 μM, toxic = L929 death) | percentage of T. cruzi growth inhibition ([2]; 80 μM, toxic = L929 death) | percentage of T. cruzi growth inhibition ([2]; 160 μM, toxic = L929 death) | inhibition at 1.25 µM [2, 6] | inhibition at 2.5 µM [2, 7] | inhibition at 5 µM [2, 7] | EC50, growth of T. cruzi amastigotes and trypomastigotes [2] | percentage of NTS activity, 72 h ([3]; 10 μM) | percentage of NTS activity, 72 h ([3]; 20 μM) | IC50 [3] | IC50 (HDAC5) | inhibition at 4 µM [4] | inhibition at 20 µM [4] | IC50 (HDAC11) | inhibition at 0.8 µM [5] | inhibition at 4 µM [5] | further results
1 | CN(C)Cc1ccc(S(=O)(=O)n2ccc3cc(/C=C/C(=O)NO)ccc32)cc1 [Compound 6, 3-(1-((4-((Dimethylamino)methyl)phenyl)sulfonyl)-1H-indol-5-yl)-N-hydroxy Acrylamide] | 2.07 µM | toxic | 2.87 µM | 31.1 µM | toxic | toxic | toxic | 0% | 0% | 3% | inactive | 20.9 ± 0.9% | 22.8 ± 1.0% | > 20 µM | 3.43 µM | 9.2 ± 3.4% | 60.1 ± 1.7% | 4.87 µM | 7.9 ± 7.5% | 6.9 ± 8.7% | percentage of T. cruzi growth inhibition ([2]; 10 μM, toxic = L929 death): toxic; percentage of T. cruzi growth inhibition ([2]; 20 μM, toxic = L929 death): toxic; fold more potent against HDAC5 than against HDAC4 (HDAC5; ratio of IC50 HDAC4 / HDAC5): 5 fold; inhibition at 20 µM [5]: 8.6 ± 1.3%; IC50 (HDAC6): 0.018 µM; IC50 (HDAC7): > 50 µM; CC50 at 96 h (in vitro): 5 µM
2 | O=C(/C=C/c1ccc(CSc2nc(Cl)cc(-c3ccccc3)n2)cc1)NO [Compound 2, 3-(4-(((4-Chloro-6-phenylpyrimidin-2-yl)thio)methyl)phenyl)-N-hydroxy Acrylamide] | 1.68 µM | toxic | 2.8 µM | > 50 µM | toxic | toxic | toxic | 0% | 0% | 0% | inactive | 39.7 ± 0.9% | 70% and 67.31 ± 2.9% | 12.9 µM | 22.9 µM | 11.3 ± 1.7% | 83.3 ± 1.8% | 2.31 µM | 1.1 ± 2% | 2.5 ± 1.4% | inhibition at 10 µM ([2]; Trypanosoma cruzi, 10 μM, toxic = L929 death, read-out: percentage of T. cruzi growth inhibition): 0%; inhibition at 20 µM ([2]; Trypanosoma cruzi, 20 μM, toxic = L929 death, read-out: percentage of T. cruzi growth inhibition): 3%; inhibition at 20 µM [5]: 74.8 ± 2.5%; IC50 (HDAC6): 0.12 µM; IC50 (HDAC7): > 50 µM; CC50 at 96 h (in vitro): 20 µM
